Test: Tissue distribution by quantitative whole-body autoradiography (QWBA)
Format: in vivo, male Sprague Dawley and Long-Evans rats
Settings: PO 15 mg/kg, Group 7
Experimental: The study utilized 4 groups of male SD rats (albino), and 3 groups of male LE rats (pigmented); a total of 39 rats. All animals were obtained from Hilltop Lab Animals, Inc. (Scottdale, Pa.). […] Rats in Group 5 were administered a single 2-h IV infusion of [^14C]brincidofovir at a target dose of 2 mg/kg. […] Three dosing formulations (one for high dose IV, one for low dose IV, and one for PO dose) were prepared at QPS on the day of dosing. The IV formulation for Groups 1, 2, 3, and 4 contained a vehicle of 10 mM sodium phosphate buffer in 5% dextrose solution at pH 8.0(±0.1).
Each animal, at their respective termination time points, was euthanized for QWBA analysis immediately after blood collection. One rat per time point per Group was euthanized as listed below.
The blood samples were maintained on wet ice (approximately 4° C.) and then centrifuged to obtain plasma within 1 h of the blood collection time. Centrifuge settings were recorded in the study notebook. Duplicate aliquots of plasma (0.050 mL) were analyzed for radioactivity using direct counting by LSC, and residual plasma was stored at approximately −70° C. and was saved for possible future analysis under a separate study protocol. Residual red blood cells were discarded as radioactive waste.
The pinna, distal limbs, hair, and tail were removed from each frozen carcass and each frozen carcass was embedded in an aqueous suspension of approximately 2% (w/v) carboxymethylcellulose and frozen into a block. The blocks were stored at approximately −20° C. prior to sectioning. Each blocked carcass was mounted on the object stage of a cryomicrotome (Leica CM3600 Cryomacrocut, Nussloch, Germany and Vibratome 9800, St. Louis, Mo.) maintained at approximately −20° C. and internal standards (3), which were plasma fortified with [^14C]-glucose at one concentration (approximately 0.05 μCi/mL), were placed into the frozen blocks, prior to sectioning, and were used for section thickness quality control. A number of whole-body sections (approximately 40 μm thick) were taken in the sagittal plane at various levels of interest using a whole-body cryomicrotome set at −20° C. Sagittal sections (20-50 μm thick) of frozen carcasses were exposed to phosphor imaging plates. Regions of images in tissues were converted to concentrations using standards. All of the major tissues, organs, and biological fluids were represented.
Tissue concentration data was determined for the following tissues and/or contents: adipose (brown and white), adrenal gland, bile (in duct), blood (cardiac), bone, bone marrow, brain (cerebrum, cerebellum, medulla), cecum (and contents), large intestine (and contents), epididymis, esophagus, eye (uvea and lens), Harderian gland, heart, kidney (cortex and medulla), liver, lung, lymph node, pancreas, pituitary gland, prostate gland, salivary gland, seminal vesicles, skeletal muscle, skin (pigmented and non-pigmented), small intestine (and contents), stomach (gastric mucosa and contents), spleen, spinal cord, testis, thymus, thyroid, and urinary bladder (and contents).
The imaging plate and sections were placed in light-tight exposure cassettes, in a copper-lined lead safe, for a 4-day exposure at room temperature. […] Quantification was performed by image densitometry using MCD image analysis software (v. 7.0, Interfocus Imaging Ltd) and a standard curve constructed from the integrated response [i.e., Molecular Dynamics Counts per square millimeter (MDC/mm^2)] and the nominal concentrations of the ^14C-calibration standards. The concentrations of radioactivity were expressed as the μg equivalents of [^14C]brincidofovir per gram sample (μg equiv/g). A lower limit of quantification (LLOQ) was applied to the data (See section 6.7.4).
Tissue concentrations that fell below the LLOQ were identified as being below the quantification limit (BQL). Tissue areas that were not visualized on autoradiographic images were identified as no sample (NS) and reported as BQL.

With `CCCCCCCCCCCCCCCCOCCCOP(=O)(O)CO[C@H](CO)Cn1ccc(N)nc1=O` [[14C]brincidofovir] the AUCall (Adipose (brown)) was 24.3703 μg equiv · h/g, the “AUCinf—obs” value (Adipose (brown)) was 24.4043 μg equiv · h/g and the Tmax (Adipose (brown)) was 4 h. The t1/2 (Adipose (brown)) was 233.5 h, the AUCall (Adipose (white)) was 1.1215 μg equiv · h/g and the “AUCinf—obs” value (Adipose (white)) was 2.4387 μg equiv · h/g. The Tmax (Adipose (white)) was 4 h, the t1/2 (Adipose (white), estimate (footnote a)) was 17.6 h and the AUCall (Adrenal Gland) was 74.5860 μg equiv · h/g. The “AUCinf—obs” value (Adrenal Gland) was 58.7136 μg equiv · h/g, the Tmax (Adrenal Gland) was 8 h and the t1/2 (Adrenal Gland) was 43.2 h. The AUCall (Blood (cardiac)) was 21.9165 μg equiv · h/g, the “AUCinf—obs” value (Blood (cardiac)) was 22.3146 μg equiv · h/g and the Tmax (Blood (cardiac)) was 8 h. For the same compound, the t1/2 (Blood (cardiac), estimate (footnote a)) was 32.8 h, the AUCall (Bone Marrow) was 68.7413 μg equiv · h/g and the “AUCinf—obs” value (Bone Marrow) was 50.2191 μg equiv · h/g. For the same compound, the Tmax (Bone Marrow) was 8 h, the t1/2 (Bone Marrow, estimate (footnote a)) was 96.3 h and the AUCall (Bone) was 1.8470 μg equiv · h/g. The “AUCinf—obs” value (Bone) was 3.7274 μg equiv · h/g, the Tmax (Bone) was 4 h and the t1/2 (Bone, estimate (footnote a)) was 53.9 h. The AUCall (Brain (cerebellum)) was 0.8610 μg equiv · h/g, the Tmax (Brain (cerebellum)) was 8 h and the AUCall (Brain (cerebrum)) was 0.7650 μg equiv · h/g. It also gave a Tmax (Brain (cerebrum)) of 8 h, an AUCall (Brain (medulla)) of 0.5770 μg equiv · h/g and a Tmax (Brain (medulla)) of 4 h. For the same compound, the AUCall (Cecum) was 174.4118 μg equiv · h/g, the “AUCinf—obs” value (Cecum) was 142.1970 μg equiv · h/g and the Tmax (Cecum) was 8 h. The t1/2 (Cecum, estimate (footnote a)) was 69.9 h, the AUCall (Epididymis) was 31.1150 μg equiv · h/g and the “AUCinf—obs” value (Epididymis) was 22.3936 μg equiv · h/g. The Tmax (Epididymis) was 4 h, the t1/2 (Epididymis, estimate (footnote a)) was 89.0 h and the AUCall (Esophagus) was 27.9015 μg equiv · h/g. The “AUCinf—obs” value (Esophagus) was 29.1559 μg equiv · h/g, the Tmax (Esophagus) was 4 h and the t1/2 (Esophagus) was 37.2 h. For the same compound, the AUCall (Eye (uveal tract)) was 16.2765 μg equiv · h/g, the “AUCinf—obs” value (Eye (uveal tract)) was 19.8244 μg equiv · h/g and the Tmax (Eye (uveal tract)) was 8 h. The t1/2 (Eye (uveal tract), estimate (footnote a)) was 57.7 h, the AUCall (Harderian Gland) was 63.7645 μg equiv · h/g and the “AUCinf—obs” value (Harderian Gland) was 50.8931 μg equiv · h/g. The Tmax (Harderian Gland) was 8 h, the t1/2 (Harderian Gland, estimate (footnote a)) was 151.8 h and the AUCall (Heart) was 31.1603 μg equiv · h/g. For the same compound, the “AUCinf—obs” value (Heart) was 23.2365 μg equiv · h/g, the Tmax (Heart) was 8 h and the t1/2 (Heart, estimate (footnote a)) was 110.8 h. The AUCall (Kidney Cortex) was 804.4980 μg equiv · h/g, the “AUCinf—obs” value (Kidney Cortex) was 822.5076 μg equiv · h/g and the Tmax (Kidney Cortex) was 8 h. For the same compound, the t1/2 (Kidney Cortex, estimate (footnote a)) was 244.8 h, the AUCall (Kidney Medulla) was 342.0130 μg equiv · h/g and the “AUCinf—obs” value (Kidney Medulla) was 286.4307 μg equiv · h/g. The Tmax (Kidney Medulla) was 8 h, the t1/2 (Kidney Medulla) was 41.2 h and the AUCall (Large Intestine) was 140.3313 μg equiv · h/g. For the same compound, the “AUCinf—obs” value (Large Intestine) was 123.4302 μg equiv · h/g, the Tmax (Large Intestine) was 8 h and the t1/2 (Large Intestine, estimate (footnote a)) was 37.6 h. The AUCall (Liver) was 1426.6340 μg equiv · h/g, the “AUCinf—obs” value (Liver) was 1435.9700 μg equiv · h/g and the Tmax (Liver) was 4 h. For the same compound, the t1/2 (Liver, estimate (footnote a)) was 190.3 h, the AUCall (Lung) was 53.1145 μg equiv · h/g and the “AUCinf—obs” value (Lung) was 39.9962 μg equiv · h/g. It also gave a Tmax (Lung) of 8 h, a t1/2 (Lung) of 93.0 h and an AUCall (Lymph Node) of 85.04 μg equiv · h/g. The “AUCinf—obs” value (Lymph Node) was 57.7701 μg equiv · h/g, the Tmax (Lymph Node) was 8 h and the t1/2 (Lymph Node, estimate (footnote a)) was 86.4 h. For the same compound, the AUCall (Pancreas) was 10.3720 μg equiv · h/g, the “AUCinf—obs” value (Pancreas) was 12.7271 μg equiv · h/g and the Tmax (Pancreas) was 4 h. The t1/2 (Pancreas) was 62.1 h, the AUCall (Pituitary Gland) was 30.5073 μg equiv · h/g and the “AUCinf—obs” value (Pituitary Gland) was 22.8331 μg equiv · h/g. For the same compound, the Tmax (Pituitary Gland) was 4 h, the t1/2 (Pituitary Gland) was 106.2 h and the AUCall (Prostate Gland) was 7.6578 μg equiv · h/g. The “AUCinf—obs” value (Prostate Gland) was 11.0471 μg equiv · h/g, the Tmax (Prostate Gland) was 4 h and the t1/2 (Prostate Gland) was 70.1 h. The AUCall (Salivary Gland) was 9.1933 μg equiv · h/g, the “AUCinf—obs” value (Salivary Gland) was 12.3800 μg equiv · h/g and the Tmax (Salivary Gland) was 8 h. The t1/2 (Salivary Gland, estimate (footnote a)) was 67.4 h, the AUCall (Seminal Vesicles) was 50.2500 μg equiv · h/g and the “AUCinf—obs” value (Seminal Vesicles) was 34.9600 μg equiv · h/g. For the same compound, the Tmax (Seminal Vesicles) was 1 h, the t1/2 (Seminal Vesicles) was 64.7 h and the AUCall (Skeletal Muscle) was 1.3265 μg equiv · h/g. The Tmax (Skeletal Muscle) was 8 h, the AUCall (Skin (non-pigmented)) was 14.0275 μg equiv · h/g and the “AUCinf—obs” value (Skin (non-pigmented)) was 20.6749 μg equiv · h/g. For the same compound, the Tmax (Skin (non-pigmented)) was 8 h, the t1/2 (Skin (non-pigmented), estimate (footnote a)) was 93.7 h and the AUCall (Skin (pigmented)) was 17.0405 μg equiv · h/g. For the same compound, the “AUCinf—obs” value (Skin (pigmented)) was 21.3144 μg equiv · h/g, the Tmax (Skin (pigmented)) was 8 h and the t1/2 (Skin (pigmented), estimate (footnote a)) was 63.4 h. For the same compound, the “AUCinf—obs” value (Small Intestine) was 9585.0880 μg equiv · h/g, the Tmax (Small Intestine) was 4 h and the t1/2 (Small Intestine) was 98.1 h. The AUCall (Small Intestine, 15 mg/kg) was 9575.1810 μg equiv · h/g, the AUCall (Spinal Cord) was 0.1110 μg equiv · h/g and the Tmax (Spinal Cord) was 4 h. The AUCall (Spleen) was 172.2208 μg equiv · h/g, the “AUCinf—obs” value (Spleen) was 125.7566 μg equiv · h/g and the Tmax (Spleen) was 24 h. For the same compound, the t1/2 (Spleen) was 115.4 h, the AUCall (Stomach (mucosa)) was 90.7575 μg equiv · h/g and the “AUCinf—obs” value (Stomach (mucosa)) was 80.6917 μg equiv · h/g. It also gave a Tmax (Stomach (mucosa)) of 2 h, a t1/2 (Stomach (mucosa)) of 66.8 h and an AUCall (Testis) of 30.3920 μg equiv · h/g. The “AUCinf—obs” value (Testis) was 21.7757 μg equiv · h/g, the Tmax (Testis) was 8 h and the t1/2 (Testis, estimate (footnote a)) was 87.2 h. For the same compound, the AUCall (Thymus) was 12.0843 μg equiv · h/g, the “AUCinf—obs” value (Thymus) was 20.6983 μg equiv · h/g and the Tmax (Thymus) was 8 h. For the same compound, the t1/2 (Thymus, estimate (footnote a)) was 96.9 h, the AUCall (Thyroid) was 31.3395 μg equiv · h/g and the “AUCinf—obs” value (Thyroid) was 21.8086 μg equiv · h/g. The Tmax (Thyroid) was 4 h, the t1/2 (Thyroid) was 59.0 h and the AUCall (Urinary Bladder) was 111.2445 μg equiv · h/g. For the same compound, the “AUCinf—obs” value (Urinary Bladder) was 91.1627 μg equiv · h/g, the Tmax (Urinary Bladder) was 8 h and the t1/2 (Urinary Bladder) was 49.7 h.

From patent US20170368082A1, “FORMULATIONS OF BRINCIDOFOVIR” (priority 2016, published 2017)
